Values quoted from earlier work in patent US20050255458A1, “Drug discovery assays based on the biology of chronic disease” (priority 2002, published 2005).
Values joined by “and” are separate entries in the source; they are usually repeats but may differ in a detail not shown here. Equal values may be shown once. Read-outs that look alike come from different tables or passages of the source.

How the values were obtained:
Conditions in all cases: cited from earlier work
[1] = tested on: VCAM-1
[2] = tested on: monocytes on VCAM-1
[3] = target: AR (Homo sapiens, UniProt P10275)
Sequence of AR (P10275 whole entry): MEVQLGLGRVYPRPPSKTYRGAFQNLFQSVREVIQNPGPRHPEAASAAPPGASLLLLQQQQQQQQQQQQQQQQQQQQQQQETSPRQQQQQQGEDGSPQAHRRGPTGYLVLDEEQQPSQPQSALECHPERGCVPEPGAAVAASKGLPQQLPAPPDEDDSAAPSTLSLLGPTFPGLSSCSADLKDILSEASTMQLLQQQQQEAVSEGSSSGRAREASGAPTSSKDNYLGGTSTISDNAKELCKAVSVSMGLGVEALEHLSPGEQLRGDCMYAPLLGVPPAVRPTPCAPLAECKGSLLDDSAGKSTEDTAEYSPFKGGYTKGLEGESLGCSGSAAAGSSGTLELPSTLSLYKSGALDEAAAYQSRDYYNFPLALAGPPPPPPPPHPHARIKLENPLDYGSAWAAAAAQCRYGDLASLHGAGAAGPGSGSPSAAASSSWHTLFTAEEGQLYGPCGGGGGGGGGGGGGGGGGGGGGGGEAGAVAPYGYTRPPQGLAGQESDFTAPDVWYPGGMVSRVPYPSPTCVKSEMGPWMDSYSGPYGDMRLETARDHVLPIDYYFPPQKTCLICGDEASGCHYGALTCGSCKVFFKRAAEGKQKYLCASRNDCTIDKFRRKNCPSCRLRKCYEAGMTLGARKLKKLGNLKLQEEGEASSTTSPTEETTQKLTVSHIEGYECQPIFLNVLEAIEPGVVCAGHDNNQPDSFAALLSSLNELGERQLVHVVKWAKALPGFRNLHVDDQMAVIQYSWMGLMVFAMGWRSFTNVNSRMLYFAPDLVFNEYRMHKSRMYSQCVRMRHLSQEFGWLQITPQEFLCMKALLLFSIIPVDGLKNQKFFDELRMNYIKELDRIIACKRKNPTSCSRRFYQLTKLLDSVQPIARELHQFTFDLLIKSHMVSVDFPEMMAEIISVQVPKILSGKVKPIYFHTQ

Substance | average percent of monocyte remaining bound ([1]; 8.5 dyn/cm^2, 0-6.99 minutes of stimulation, 1 ng/ml) [%] | average percent of monocyte remaining bound ([1]; 8.5 dyn/cm^2, 7.0-13.99 minutes) [%] | average percent of monocyte remaining bound ([1]; 8.5 dyn/cm^2, 14.0-30.0 minutes) [%] | average percent of monocyte remaining bound ([1]; 36 dyn/cm^2, 0-6.99 minutes) [%] | average percent of monocyte remaining bound ([1]; 36 dyn/cm^2, 14.0-30.0 minutes) [%] | Average velocity [2] [μm/min] | Bmax [3]
MCP-1: a chemokine | 51 | 67 | 31 | 36 | 16 | 2.43 ± 1.36 | –
[^3H]methyltrienolone [[3H]methyltrienolone (R1881)] | – | – | – | – | – | – | 30.1 ± 4.3 fmol/mg protein and 26.8 ± 3.0 fmol/mg protein and 18.7 ± 4.4 fmol/mg protein
